Data published in publication PMC9705834, “Mitochondrial Targeting Domain Homologs Induce Necrotic Cell Death Via Mitochondrial and Endoplasmic Reticulum Disruption” (Journal of Microbiology and Biotechnology, 2021).

Key:
[1] = cited from earlier work
Description: Within few minutes after the treatment with the MTD peptide, intracellular calcium concentration increases, and extracellular calcium penetrates through the mitochondrial permeability transition (mPT) pore. With the formation of blebs, the calcium concentration decreases and mitochondrial reactive oxidative species (ROS) begin to increase. MTDs also induce mitochondrial swelling, fragmentation, and endopla ... || Bnip1 MTD-like motif (B1MLM), derived from another BH3-only protein, Bnip1, also induces cell death in the same manner. Bnip1 interacts with […] Bcl-2 family proteins and the adenoviral antiapoptotic protein, E1B 19 kDa. The BH3 domain of Bnip1 is closely involved in apoptosis and mitochondrial fission carried out by Drp1 [14]. B1MLM has a similar arrangement of leucine residues as that of MTD. […] Similar to MTD, B1MLM induces a sharp rise in ca ... || MTD and B1MLM peptides induce necrotic cell death when associated with R8. R8 is a well-known cell penetrating motif. […] To evaluate the cytotoxicity of MTD homologs, we synthesized these peptides and fused R8 at the N-terminus.

HeLa cells = test: MTS assay of cell viability after peptide treatment; type: cell-based; details: HeLa cells at 90% confluency, peptide in phenol red-free DMEM for 1 h, absorbance 450 nm
Experimental: HeLa cells were purchased from the Korean Cell Line Bank (Korea) and cultured in Dulbecco’s modified Eagle’s medium (DMEM) containing 10% fetal bovine serum and 1× penicillin-streptomycin (100 IU/ml and 100 μg/ml, Gibco-Thermo Fisher, USA) at 37°C in a humidified 5% CO2 atmosphere.
HeLa cells were cultured in 96-well plates to 90% confluency and treated with peptides mixed in phenol red-free DMEM for 1 h. After incubation, MTS solution (20 μl, Promega, USA) was added and the absorbance of each well was measured at 450 nm.
Fig. 1 Mitochondrial targeting domain (MTD) homologs induce necrotic cell death as in MTD. A. (Left panel) There are several mitochondrial targeting domain (MTD) homologs in human genes. They were searched by protein basic local alignment search tool (BLAST) on National Center for Biotechnology Information (NCBI) and sorted according to percent identity with MTD. Each amino acid was colored according to the ClustalX color scheme (hydrophobic, blue; positive charge, red; negative charge, magenta; polar, green; glycine, orange; proline, yellow; aromatic, cyan; cysteine, pink). (Right panel) The cytotoxicity of mitochondrial targeting domain (MTD) homologs is determined by its amino acid sequence. MTD homologs were grouped according to their cytotoxicity, then sorted according to percent identity with MTD. Each amino acid was colored according to the ClustalX color scheme (hydrophobic, blue; positive charge, red; negative charge, magenta; polar, green; glycine, orange; proline, yellow; aromatic, cyan; cysteine, pink). B. Cell viabilities were determined by MTS assay 1 h after treating HeLa cells with MTD homologs fused with octa-arginine (R8). HeLa cells treated with R8:M-LIPRIN, R8:MST3GAL3, R8:M-TRRAD, and R8:M-SDAD1(left panel). HeLa cells treated with eM-GAL3, R8:MGAL3, and R8:M-ST13 (right panel). C, HeLa cells treated with R8:M-SDAD1 (5 μM), R8:M-TRRAD (20 μM), and R8:M-ST3GAL3 (40 μM), then observed for 10 min using differential interference contrast microscopy. D, HeLa cells were treated with R8:M-SDAD1 (10 μM), R8:M-TRRAD (20 μM), and R8:M-ST3GAL3 (40 μM), with and without DIDS (200 μM); after 1 h, cell viability was determined by MTS assay. […]

[2] = previous study; cited from earlier work

Row | Sequence | cytotoxicity / cell viability as the concentration increased (Fig. 1B) (HeLa cells) | also measured
1 | KLNFRQKLLNLISKLFCSGT [eMTD, extended MTD: MTD with its flanking region] | – | necrotic cell death ([1]; MTD with its flanking region): strongly induces necrotic cell death
2 | RRRRRRRRNPKVMNLISKLSAK [R8:M-ST13, MTD homolog found in ST13, fused with R8 at the N-terminus] | hardly altered cell viability | –
3 | KLLNLISKLF [MTD, mitochondrial targeting domain of Noxa, as a peptide without R8] | – | cell killing activity of MTD peptide without R8 ([1]; previous study): did not show any cell killing activity
4 | RRRRRRRREAKLLELTSKLRKA [R8:M-LIPRIN, MTD homolog found in LIPRIN, fused with R8 at the N-terminus] | hardly altered cell viability | –
5 | LLQYNHRVKKLNEISKLGISGDIDLTSASYTMI [eM-GAL3, M-GAL3 with a flanking region similar to that of eMTD, without R8] | hardly altered cell viability | –
6 | RRRRRRRRVKKLNEISKLGISG [R8:M-GAL3, MTD homolog found in GAL3, fused with R8 at the N-terminus] | hardly altered cell viability | –
7 | RRRRRRRRKLLNLISKLF [R8:MTD] | – | disruption of ER and mitochondria [2]: induced the disruption of ER and mitochondria
